Source: US20230114728A1 (Venatorx Pharmaceuticals, Inc., priority 2019, published 2023)
In brackets after ≈: the same amount, converted by molar mass.

Legend:
Type in all cases: cell-based
[1] = system: N. gonorrhoeae H041; experiment: Liquid broth MIC in Fastidious broth; details: Neisseria gonorrhoeae, H041, read-out: Minimum Inhibitory Concentration, N. gonorrhoeae H041
Outline: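 Mosaic-PBP2 strains grown 24 h on chocolate agar (36 °C, 5% CO2), then direct-suspended in saline and OD600-adjusted. Twofold compound dilutions in Fastidious broth inoculated at 5×10^5 CFU/mL and incubated ~24 h at 36 °C, 5% CO2. MIC read visually as lowest concentration with <10% growth versus full-growth wells.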

[2] = system: E. coli D22; experiment: Broth microdilution MIC in CAMHB; details: Escherichia coli; E. coli D22 (hyper-permeable); MHB; read-out: Minimum Inhibitory Concentration, E. coli D22
Outline: (§1)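 Per CLSI broth microdilution, colonies were grown 3-5 h at 37° C in cation-adjusted Mueller Hinton broth, then diluted to a starting inoculum of 2-8×10^5 CFU/mL against 2-fold serial compound dilutions. Plates were incubated 16-20 h at 37° C, and MIC was read visually as the lowest concentration with no growth.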

[3] = system: P. aeruginosa (ΔmexAB-oprM); experiment: Broth microdilution MIC in CAMHB; details: Pseudomonas aeruginosa, read-out: Minimum Inhibitory Concentration, P. aeruginosa ΔmexAB-OprM
Outline: as §1

[4] = system: E. coli AG100A; experiment: Broth microdilution MIC in CAMHB; details: Escherichia coli, read-out: Minimum Inhibitory Concentration, E. coli AG100A
Outline: as §1

[5] = system: K. pneumoniae 848844 producing SHV-11 and KPC-2; experiment: Broth microdilution MIC in CAMHB; details: Klebsiella pneumoniae, read-out: Minimum Inhibitory Concentration, K. pneumoniae 848844
Outline: as §1

[6] = system: E. coli 901C; experiment: Broth microdilution MIC in CAMHB; details: Escherichia coli; E. coli 901C (hyper-permeable); MHB; read-out: Minimum Inhibitory Concentration, E. coli 901C
Outline: as §1

[7] = system: E. coli ATCC 25922; experiment: Broth microdilution MIC in CAMHB; details: Escherichia coli, ATCC25922; E. coli ATCC 25922; MHB; read-out: Minimum Inhibitory Concentration, E. coli 25922
Outline: as §1

[8] = system: K. pneumoniae UMM producing SHV-5 and KPC-2; experiment: Broth microdilution MIC in CAMHB; details: Klebsiella pneumoniae, read-out: Minimum Inhibitory Concentration, K. pneumoniae UMM
Outline: as §1

[9] = system: A. baumannii ATCC 19606; experiment: Broth microdilution MIC in CAMHB; details: Acinetobacter baumannii, ATCC19606; MHB; read-out: Minimum Inhibitory Concentration, A. baumannii ATCC 19606
Outline: as §1

[10] = system: P. aeruginosa ATCC 27853; experiment: Broth microdilution MIC in CAMHB; details: Pseudomonas aeruginosa, ATCC27853; MHB; read-out: Minimum Inhibitory Concentration, P. aeruginosa ATCC 27853
Outline: as §1

[11] = system: K. pneumoniae SI-117 producing VIM-1; experiment: Broth microdilution MIC in CAMHB; details: Klebsiella pneumoniae, read-out: Minimum Inhibitory Concentration, K. pneumoniae SI-117
Outline: as §1

[12] = system: P. aeruginosa ATCC 35151; experiment: Broth microdilution MIC in CAMHB; details: Pseudomonas aeruginosa, ATCC35151; MHB; hyper-permeable strain; read-out: Minimum Inhibitory Concentration, P. aeruginosa ATCC 35151
Outline: as §1

[13] = system: E. coli AG100; experiment: Broth microdilution MIC in CAMHB; details: Escherichia coli; E. coli AG100 (wild-type parent); MHB; read-out: Minimum Inhibitory Concentration, E. coli AG100
Outline: as §1

Row | Structure (SMILES) | MIC [1] | MIC [2] | MIC [3] | MIC [4] | MIC [5] | MIC [6] | MIC [7] | MIC [8] | MIC [9] | MIC [10] | MIC [11] | MIC [12] | MIC [13]
1 | NCCN1CCN(C(=O)NC(C(=O)N[C@H]2Cc3cccc(C(=O)O)c3OB2O)c2ccc(C(=O)O)cc2O)C(=O)C1=O (stereo partly drawn) [Example 142, (3R)-3-(2-(4-(2-aminoethyl)-2,3-dioxopiperazine-1-carboxamido)-2-(4-carboxy-2-hydroxyphenyl)acetamido)-2-hydroxy-3,4-dihydro-2H-benzo[e][1,2]oxaborinine-8-carboxylic acid] | > 64 µg/mL | 8 to 16 µg/mL (≈ 13.7 to 27.4 µM) | > 128 µg/mL | 32 to 64 µg/mL (≈ 54.9 to 110 µM) | > 128 µg/mL | 2 to 4 µg/mL (≈ 3.43 to 6.86 µM) | > 128 µg/mL | 32 to 64 µg/mL (≈ 54.9 to 110 µM) | > 128 µg/mL | > 128 µg/mL | > 128 µg/mL | 2 to 4 µg/mL (≈ 3.43 to 6.86 µM) | 32 to 64 µg/mL (≈ 54.9 to 110 µM)
2 | CCN1CCN(C(=O)NC(C(=O)N[C@H]2Cc3cccc(C(=O)O)c3OB2O)c2cc(F)c(O)c(F)c2F)C(=O)C1=O (stereo partly drawn) [Example 172, (3R)-3-(2-(4-ethyl-2,3-dioxopiperazine-1-carboxamido)-2-(2,3,5-trifluoro-4-hydroxyphenyl)acetamido)-2-hydroxy-3,4-dihydro-2H-benzo[e][1,2]oxaborinine-8-carboxylic acid] | 16 to 32 µg/mL (≈ 27.7 to 55.3 µM) | 2 to 4 µg/mL (≈ 3.46 to 6.92 µM) | 2 to 4 µg/mL (≈ 3.46 to 6.92 µM) | 2 to 4 µg/mL (≈ 3.46 to 6.92 µM) | > 128 µg/mL | < 0.25 µg/mL | 32 to 64 µg/mL (≈ 55.3 to 111 µM) | 32 to 64 µg/mL (≈ 55.3 to 111 µM) | > 128 µg/mL | > 128 µg/mL | > 128 µg/mL | < 0.25 µg/mL | 8 to 16 µg/mL (≈ 13.8 to 27.7 µM)
3 | NCCN1CCN(C(=O)N[C@@H](C(=O)N[C@H]2Cc3cccc(C(=O)O)c3OB2O)c2c(F)cc(O)cc2F)C(=O)C1=O (single isomer, unassigned) [Example 111] | > 64 µg/mL | 2 to 4 µg/mL (≈ 3.48 to 6.95 µM) | 8 to 16 µg/mL (≈ 13.9 to 27.8 µM) | 0.5 to 1 µg/mL (≈ 0.869 to 1.74 µM) | 8 to 16 µg/mL (≈ 13.9 to 27.8 µM) | 0.5 to 1 µg/mL (≈ 0.869 to 1.74 µM) | 8 to 16 µg/mL (≈ 13.9 to 27.8 µM) | 8 to 16 µg/mL (≈ 13.9 to 27.8 µM) | > 128 µg/mL | > 128 µg/mL | 8 to 16 µg/mL (≈ 13.9 to 27.8 µM) | 0.5 to 1 µg/mL (≈ 0.869 to 1.74 µM) | 8 to 16 µg/mL (≈ 13.9 to 27.8 µM)
4 | NCCN1CCN(C(=O)N[C@H](C(=O)N[C@H]2Cc3cccc(C(=O)O)c3OB2O)c2cc(Cl)c(O)c(Cl)c2)C(=O)C1=O (single isomer, unassigned) [Example 165] | > 64 µg/mL | 32 to 64 µg/mL (≈ 52.6 to 105 µM) | 8 to 16 µg/mL (≈ 13.2 to 26.3 µM) | 8 to 16 µg/mL (≈ 13.2 to 26.3 µM) | > 128 µg/mL | 2 to 4 µg/mL (≈ 3.29 to 6.58 µM) | > 128 µg/mL | > 128 µg/mL | > 128 µg/mL | > 128 µg/mL | > 128 µg/mL | 0.5 to 1 µg/mL (≈ 0.822 to 1.64 µM) | > 128 µg/mL
5 | NCCN1CCN(C(=O)N[C@@H](C(=O)N[C@H]2Cc3ccc(F)c(C(=O)O)c3OB2O)c2c(F)cc(O)cc2F)C(=O)C1=O (single isomer, unassigned) [Example 127] | > 64 µg/mL | 2 to 4 µg/mL (≈ 3.37 to 6.74 µM) | 8 to 16 µg/mL (≈ 13.5 to 27 µM) | 8 to 16 µg/mL (≈ 13.5 to 27 µM) | 32 to 64 µg/mL (≈ 53.9 to 108 µM) | 2 to 4 µg/mL (≈ 3.37 to 6.74 µM) | 8 to 16 µg/mL (≈ 13.5 to 27 µM) | 8 to 16 µg/mL (≈ 13.5 to 27 µM) | > 128 µg/mL | > 128 µg/mL | 32 to 64 µg/mL (≈ 53.9 to 108 µM) | 0.5 to 1 µg/mL (≈ 0.843 to 1.69 µM) | 8 to 16 µg/mL (≈ 13.5 to 27 µM)
6 | NCCN1CCN(C(=O)NC(C(=O)N[C@H]2Cc3cccc(C(=O)O)c3OB2O)c2ccc(C(=O)O)c(Cl)c2)C(=O)C1=O (stereo partly drawn) [Example 153, (3R)-3-(2-(4-(2-aminoethyl)-2,3-dioxopiperazine-1-carboxamido)-2-(4-carboxy-3-chlorophenyl)acetamido)-2-hydroxy-3,4-dihydro-2H-benzo[e][1,2]oxaborinine-8-carboxylic acid] | > 64 µg/mL | 2 to 4 µg/mL (≈ 3.32 to 6.65 µM) | 8 to 16 µg/mL (≈ 13.3 to 26.6 µM) | 8 to 16 µg/mL (≈ 13.3 to 26.6 µM) | > 128 µg/mL | 0.5 to 1 µg/mL (≈ 0.831 to 1.66 µM) | 32 to 64 µg/mL (≈ 53.2 to 106 µM) | 32 to 64 µg/mL (≈ 53.2 to 106 µM) | > 128 µg/mL | 32 to 64 µg/mL (≈ 53.2 to 106 µM) | > 128 µg/mL | 0.5 to 1 µg/mL (≈ 0.831 to 1.66 µM) | 32 to 64 µg/mL (≈ 53.2 to 106 µM)
